Tests used:
[1] = biological target: T1, soybean lipoxygenase (Glycine max, UniProt P08170); assay: biochemical; type: biochemical; settings: soybean LOX; for IC50: read-out: LOX IC50
T1 sequence (P08170 1-839): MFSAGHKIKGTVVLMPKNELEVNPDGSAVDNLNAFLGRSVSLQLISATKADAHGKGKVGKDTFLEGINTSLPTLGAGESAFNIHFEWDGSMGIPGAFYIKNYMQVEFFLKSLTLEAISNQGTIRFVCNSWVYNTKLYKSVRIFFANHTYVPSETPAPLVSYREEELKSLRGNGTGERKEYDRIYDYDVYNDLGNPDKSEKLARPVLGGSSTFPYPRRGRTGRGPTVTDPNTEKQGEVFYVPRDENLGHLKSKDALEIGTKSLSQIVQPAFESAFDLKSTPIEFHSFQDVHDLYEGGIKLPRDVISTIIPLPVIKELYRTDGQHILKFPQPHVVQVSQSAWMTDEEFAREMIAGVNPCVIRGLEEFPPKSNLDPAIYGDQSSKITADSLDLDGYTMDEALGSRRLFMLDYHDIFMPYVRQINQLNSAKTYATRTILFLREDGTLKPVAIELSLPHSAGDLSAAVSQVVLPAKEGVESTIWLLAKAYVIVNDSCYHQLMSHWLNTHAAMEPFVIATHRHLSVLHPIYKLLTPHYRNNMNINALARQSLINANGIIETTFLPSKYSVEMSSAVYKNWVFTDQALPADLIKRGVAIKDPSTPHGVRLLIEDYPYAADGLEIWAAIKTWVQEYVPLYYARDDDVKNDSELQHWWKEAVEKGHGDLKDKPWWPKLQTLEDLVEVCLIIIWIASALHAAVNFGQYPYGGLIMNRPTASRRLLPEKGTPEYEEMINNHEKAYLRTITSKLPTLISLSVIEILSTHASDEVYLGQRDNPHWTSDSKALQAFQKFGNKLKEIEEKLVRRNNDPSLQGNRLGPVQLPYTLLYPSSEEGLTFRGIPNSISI
Source text: In our experiments we used soybean lipoxygenase. Designing agents to modulate activities of the variety of so closely homologous enzymes, such as different LOXs, require an intimate knowledge of their 3D structures, as well as information about metabolism of the potential xenobiotics. […] Due to lack of sufficiently-purified human enzymes most of the research has been done on soybean LOX [52, 53]. Although this enzyme is not identical to the mammalian one, it seems that there is a sufficient qualitative correlation between values for enzyme inhibition with the two enzymes.
In vitro study was evaluated as reported previously. The tested compounds as stock solutions were dissolved in DMSO. Ten microliters (10 μL) were incubated at room temperature with sodium linoleate ([…]) and 0.2 mL of enzyme solution (1/9 × 10^−4 w/v in saline) in buffer pH 9 (tris) at room temperature (final volume 1 mL). […] Several concentrations were used for the determination of IC50 values.

[2] = ABTS•+ decolorization assay
Method: The decolorization assay is used to evaluate the antioxidant activity. The ABTS^•+ cationic radical is derived from the direct oxidation of ABTS by potassium persulfate. No involvement of an intermediary radical is observed. The addition of electron-donating antioxidants reduce ABTS^•+.
Stock solutions of the tested compounds in DMSO (10 mM) were diluted. […] aliquots of each sample were added into the ABTS·^+ solution and the absorbance was recorded at room temperature. Trolox was used as a standard.

[3] = Inhibition of linoleic acid lipid peroxidation (AAPH)
Source text: The water soluble 2,2′-azobis(2-amidinopropane) hydrochloride (AAPH) generates in vitro free radicals through spontaneous thermal decomposition. […] Overall, chalcones a, b, and c present anti-lipid peroxidation activity. […] The inhibiting activities for the rest b chalcones ranged from 15–44%. The intermediate ethers are moderate inhibitors. […] This might be correlated with the presence of the double C=C–COCH3 group. […] Both have a long ether chain in their structure.
In an aqueous solution spectrophotometrically at 234 nm the production of conjugated diene hydro peroxide by oxidation of sodium linoleate was monitored and recorded according to our previous published experimental conditions, using 10 µL of the 16 mM sodium linoleate solution added to the UV cuvette containing 930 μL of 0.05 M phosphate buffer, pH 7.4 pre-thermostated at 37 °C, under air by the addition of 50 μL of 40 mM AAPH solution, which was used as a free radical initiator. Ten microliters (10 μL) of the appropriate solutions of the tested compounds were added in the mixture, whereas same level of DMSO was used as a blank for the measurement of lipid oxidation. The rate of oxidation at 37 °C was monitored by recording the increase in absorption at 234 nm caused by conjugated diene hydro peroxides.

[4] = tested on: L929 mouse fibroblasts cells; assay: Cytotoxicity, propidium iodide fluorescence method; type: cell-based; settings: 24-h incubation
Method: The cytotoxicity of the synthesized derivatives against L929 mouse fibroblasts cells was determined using the propidium iodide (PI) fluorescence method in the presence of different concentrations (1–100 μM) of these compounds. The results are presented in Table 4 in the form of the % cell survival values as PI% for the examined compounds. […] Chalcones c7, c8, c11, and c12 follow.
L929 mouse fibroblasts cells were cultured in EMEM supplemented with 10% horse serum, 2 mM L-glutamine, 1 mM sodium pyruvate, 0.1 mM nonessential amino acids, 1.5 g/L sodium bicarbonate, and 100 μg/mL penicillin–streptomycin at 37 °C in a humidified atmosphere with 5% CO2. L929 cells were plated into 24-well plates at a density […] and allowed to attach and grow for 24 h. The supernatant in each well then replaced with medium containing various concentrations (1, 10, 20, 50 and 100 μM) of compounds a5–12, c5–12, di, and dii–dvi, which presented the more interesting results in the in vitro experiments. After 24-h incubation, the supernatant was removed and the cells were washed with PBS. The cells were detached with 0.25% trypsin, transferred to FACS tubes, and then centrifuged (1600 rpm for 5 min) and the pellet washed with PBS. After washing, the cells in the pellet were incubated with 5 μL propidium iodide (PI) solution (1 mg/mL) for 1 min. The PI fluorescence (cell death) was determined with flow cytometry, FACS Calibur, Coulter Epics XL-MCL (Beckman, Inc., Mount Holly, NJ, USA). The analysis of flow cytometry data was performed with the WinMDI analysis program (Table 4).

[5] = Lipophilicity as RM values by RP-TLC; type: physicochemical; design: key: RM = log[(1/Rf) − 1]; settings: methanol/water 70/30, SD < 10%
Source text: It is well-documented and discussed in the literature that lipophilicity is a very significant physicochemical property which may critically affect distribution, bioavailability, metabolic activity and elimination, all the useful characteristics for the kinetics of biologically active compounds. Thus, we attempted to determine experimentally the lipophilicity of the synthesized compounds from the RPTLC method as RM values. The method is considered to be a reliable, fast and convenient method for expressing lipophilicity. Moreover, many calculated methods were used in order to predict the logP value.
Reversed phase TLC (RP-TLC) was performed on silica gel plates impregnated with 5% (v/v) liquid paraffin in light petroleum ether. The mobile phase was a methanol/water mixture (70/30, v/v). The plates were developed in closed chromatography tanks saturated with the mobile phase at 24 °C. Spots were detected under UV light. Five individual measurements of Rf values were recorded and used for the determination of RM using the equation RM = log [(1/Rf) − 1]. (Table 3).

[6] = Reducing activity with the stable radical DPPH
Method: The chalcones were studied for the antioxidant activity (reducing activity RA%) by the use of the stable free radical 2,2-diphenyl-1-picrylhydrazyl radical (DPPH) at concentrations 0.05 mM after 20 and 60 min (Table 2). In this procedure, the dominant chemical reaction involved is the reduction of the DPPH radical by single electron transfer from the antioxidant. […] For the sake of comparison, we measured the RA% values for the intermediate double ethers d which were included in the Table 2.
To a solution of DPPH (final concentration 0.05 mM) in absolute ethanol an equal volume of the compounds solution in DMSO (stock solution 10 mM) dissolved in ethanol was added. Absolute ethanol was used as a control. The concentrations of the solutions of the compounds were 0.05 and 0.1 mM. The absorbance was recorded at 517 nm at room temperature after 20 and 60 min [29] (Table 2).

Compound | % LOX Inhb. @ 100 μM [1] [%] | ABTS•+ Inhb. % @ 100 μM [2] | AAPH% @ 100 μM (anti-lipid peroxidation) [3] [%] | 1 μM Average (% pi) ± σ ([4]; 1 μM) [%] | 10 μM Average (% pi) ± σ ([4]; 10 μM) [%] | 20 μM Average (% pi) ± σ ([4]; 20 μM) [%] | 50 μM Average (% pi) ± σ ([4]; 50 μM) [%] | 100 μM Average (% pi) ± σ ([4]; 100 μM) [%] | RM [5] | RA% 100 μM 20 min [6] | RA% 100 μM 60 min [6] | IC50 [1] [µM]
O=C(/C=C/c1cccs1)c1ccc(OCCCOc2ccc(C(=O)/C=C/c3cccs3)cc2)cc1 [c5, (2E,2′E)-1,1′-((propane-1,3-diylbis-(oxy))bis-(4,1-phenylene)) bis-(3-(thiophen-2-yl)prop-2-en-1-one)] | 32 | No | 46 | 0.32 ± 0.45 | 0.97 ± 0.2 | 3.02 ± 1.36 | 7.26 ± 0.3 | 7.26 ± 0.3 | 0.43 | No | no | 
CN(C)c1ccc(/C=C/C=C/C(=O)c2ccccc2O)cc1 [b3, (2E,4E)-5-(4-(dimethylamino)phenyl)-1-(2-hydroxyphenyl)penta-2,4-dien-1-one] | 100 | 96% | 100 |  |  |  |  |  | −0.66 | 72% | 15% | 57
O=C(/C=C/C=C/c1ccc([N+](=O)[O-])cc1)c1ccccc1O [b11, (2E,4E)-1-(2-hydroxyphenyl)-5-(4-nitrophenyl) penta-2,4-dien-1-one] | 31 | No | 31 |  |  |  |  |  | −0.91 | 4% | 2% | 
O=C(/C=C/c1ccccc1)c1ccc(OCCCOc2ccc(C(=O)/C=C/c3ccccc3)cc2)cc1 [c13, (2E,2′E)-1,1′-((propane-1,3-diylbis(oxy))bis(4,1-phenylene))bis(3-phenylprop-2-en-1-one)] | 76 | No | 71 |  |  |  |  |  | 0.34 | No | no | 65
O=C(/C=C/C=C/c1ccccc1)c1ccccc1O [b7, (2E,4E)-1-(2-hydroxyphenyl)-5-phenylpenta-2,4-dien-1-one] | 29 | 5% | 29 |  |  |  |  |  | −0.85 | 13% | 0% | 
O=C(/C=C/c1ccccc1)c1ccccc1O [b13, (E)-1-(2-hydroxyphenyl)-3-phenylprop-2-en-1-one] | 14 | No | 15 |  |  |  |  |  | 0.43 | 10% | 0% | 
O=C(/C=C/C(Br)=C\c1ccccc1)c1ccccc1O [b9, (2E,4E)-4-bromo-1-(2-hydroxyphenyl)-5-phenylpenta-2,4-dien-1-one] | 16 | No | 17 |  |  |  |  |  | −0.37 | 20% | 8% | 
CN(C)c1ccc(/C=C/C=C/C(=O)c2ccc(OCCCCOc3ccc(C(=O)/C=C/C=C/c4ccc(N(C)C)cc4)cc3)cc2)cc1 [eiii, (2E,2′E,4E,4′E)-1,1′-((butane-1,4-diylbis(oxy))bis(4,1-phenylene))bis(5-(4-(dimethylamino)phenyl)penta-2,4-dien-1-one)] | 27 | No | 47 |  |  |  |  |  | −0.07 | No | no | 
O=C(/C=C/c1cccc(Oc2ccccc2)c1)c1ccccc1O [b2, (E)-1-(2-hydroxyphenyl)-3-(3-phenoxyphenyl) prop-2-en-1-one] | 44 | No | 44 |  |  |  |  |  | 0.04 | 45% | 15% | 
O=C(/C=C/c1ccccc1)c1ccc(O)cc1 [a13, (E)-1-(4-hydroxyphenyl)-3-phenylprop-2-en-1-one] | 23 | No | 38 |  |  |  |  |  | −0.73 | 7% | 3% | 
